Literature values as cited in patent US20070071818A1 (ARDANA BIOSCIENCE LIMITED, priority 2002, published 2007).
Counter-ions that a name gives are not always drawn.

What was measured:
[1] = system: female sexual arousal disorder; conditions: oral; menopausal women with female sexual arousal disorder
female sexual response = conditions: female sexual dysfunction
erectile response = conditions: oral administration; psychogenic patient

Cc1ccc(N(CC2=NCCN2)c2cccc(O)c2)cc1 [phentolamine]
effect across all measures of arousal [1]: mild positive effect

CCCc1nn(C)c2c(=O)[nH]c(-c3cc(S(=O)(=O)N4CCN(C)CC4)ccc3OCC)nc12 [sildenafil]
subjective and physiologic parameters of the female sexual response (female sexual response): significantly improve

CN1CCc2cccc3c2[C@H]1Cc1ccc(O)c(O)c1-3 [apomorphine, (6aR)-5,6,6a,7-Tetrahydro-6-methyl-4H-dibenzo[de,g]quinoline-10,11-diol hydrochloride hemihydrate]
erectile response (erectile response): induce an erection
